Data as given in PMC5253077 (Acta biomaterialia, 2016).
Converted amounts (≈) assume the structure as drawn. Square brackets hold non-standard residues; d marks the D form. Peptide text beside a SMILES is read from it.

What was measured:
[1] = test system: S. aureus USA300; type: cell-based, Staphylococcus aureus
[2] = test system: S. epidermidis 1457; type: cell-based, Staphylococcus epidermidis; conditions: 1457, 20 h
[3] = test system: S. aureus USA300; type: cell-based, Staphylococcus aureus; conditions: USA300, 20 h
[4] = test system: B. subtilis 168; type: cell-based, Bacillus subtilis; conditions: 168, 20 h
[5] = test system: E. coli K12; type: cell-based, Escherichia coli; conditions: K12, 20 h
[6] = test system: C. glabrata ATCC 2001; type: cell-based, Candida glabrata; conditions: ATCC 2001, 48 h
[7] = test system: Candida albicans ATCC 10231; type: cell-based; conditions: ATCC 10231, 48 h
[8] = test system: C. tropicalis ATCC 13803; type: cell-based, Candida tropicalis; conditions: ATCC 13803, 48 h
[9] = test system: B. megaterium; conditions: cited from earlier work
[10] = test system: E. coli ATCC 25922 and ML-35p strains; conditions: cited from earlier work
[11] = test system: S. aureus ATCC 25923; conditions: cited from earlier work
[12] = test system: E. coli ATCC 35218; conditions: cited from earlier work
[13] = test system: HeLa CCL-2 cells; type: cell-based, human
[14] = test system: Human HaCaT; test: MTS cytotoxicity assay; type: cell-based; conditions: skin keratinocytes
[15] = test system: Chicken RBCs; test: Hemolytic assay; type: cell-based; conditions: 2% blood cells in PBS, 37°C, one hour, hemoglobin at 545 nm
[16] = test system: Human HEK293; test: MTS cytotoxicity assay; type: cell-based; conditions: kidney cells
[17] = test system: Porcine RBCs; test: Hemolytic assay; type: cell-based, pig; conditions: 2% blood cells in PBS, 37°C, one hour, hemoglobin at 545 nm
[18] = test system: Human HeLa (HeLa CCL-2); test: MTS cytotoxicity assay; type: cell-based

Row | Structure (SMILES) | MBC S. aureus USA300 [1] | MIC S. epidermidis 1457 [2] | MIC S. aureus USA300 [3] | MIC B. subtilis 168 [4] | MIC E. coli K12 [5] | MIC Candida glabrata [6] | MIC Candida albicans [7] | MIC against S. aureus USA300, 150 mM NaCl [3] | MIC against S. aureus USA300, pH 6.8 [3] | MIC against S. aureus USA300, Normal medium (pH 7.4) [3] | MIC against S. aureus USA300, pH 8 [3] | MIC Candida tropicalis [8] | other results
1 | CC[C@@H](C)[C@@H](NC(=O)[C@@H](CCCCN)NC(=O)[C@@H](CCCNC(=N)N)NC(=O)[C@@H](CC(C)C)NC(=O)[C@@H](Cc1c[nH]c2ccccc12)NC(=O)[C@@H](Cc1c[nH]c2ccccc12)NC(=O)[C@H](N)Cc1c[nH]c2ccccc12)C(=O)N[C@H](Cc1c[nH]c2ccccc12)C(=O)O [TetraF2W-RK-d] (H-[dW][dW][dW][dL][dR][dK][dI][dW]-OH) | 12.5 µM (≈ 15.9 µg/mL) | 6.2 µM (≈ 7.9 µg/mL) | 3.1 µM (≈ 3.95 µg/mL) | 3.1 µM (≈ 3.95 µg/mL) | 6.2 µM (≈ 7.9 µg/mL) |  |  |  |  |  |  |  | 
2 | CC[C@H](C)[C@H](NC(=O)[C@H](CCCCN)NC(=O)[C@H](CCCNC(=N)N)NC(=O)[C@H](CC(C)C)NC(=O)[C@H](Cc1c[nH]c2ccccc12)NC(=O)[C@H](Cc1c[nH]c2ccccc12)NC(=O)[C@@H](N)Cc1c[nH]c2ccccc12)C(=O)N[C@@H](Cc1c[nH]c2ccccc12)C(=O)O [TetraF2W-RK] (H-WWWLRKIW-OH) | 12.5 µM (≈ 15.9 µg/mL) | 6.2 µM (≈ 7.9 µg/mL) | 3.1 µM (≈ 3.95 µg/mL) | 6.2 µM (≈ 7.9 µg/mL) | 25 µM (≈ 31.8 µg/mL) | 12.5 µM (≈ 15.9 µg/mL) | 12.5 µM (≈ 15.9 µg/mL) | 3.1 µM (≈ 3.95 µg/mL) | 6.2 μM | 3.1 μM | 3.1 μM | 3.1 to 6.2 µM | 
3 | CC[C@H](C)[C@H](NC(=O)[C@H](CCCNC(=N)N)NC(=O)[C@H](CO)NC(=O)[C@H](CC(C)C)NC(=O)[C@H](Cc1ccccc1)NC(=O)[C@H](Cc1ccccc1)NC(=O)[C@@H](N)Cc1ccccc1)C(=O)N[C@@H](Cc1ccccc1)C(N)=O [Temporin-SHf] (H-FFFLSRIF-NH2; N-terminus and C-terminus assumed) |  |  |  |  |  |  |  |  |  |  |  |  | MIC B. megaterium [9]: 3 µM (≈ 3.23 µg/mL); MIC E. coli ATCC 25922 and ML-35p strains [10]: 25 to 30 µM; MIC S. aureus ATCC 25923 [11]: 12.5 µM (≈ 13.4 µg/mL); MIC E. coli ATCC 35218 [12]: > 200 µM
4 | CC[C@H](C)[C@H](NC(=O)[C@H](CCCNC(=N)N)NC(=O)[C@H](CCCNC(=N)N)NC(=O)[C@H](CC(C)C)NC(=O)[C@H](Cc1c[nH]c2ccccc12)NC(=O)[C@H](Cc1c[nH]c2ccccc12)NC(=O)[C@H](Cc1c[nH]c2ccccc12)NC(=O)[C@@H](N)CS)C(=O)N[C@@H](Cc1c[nH]c2ccccc12)C(=O)O [CysTetraF2W-RR] (H-CWWWLRRIW-OH) |  |  |  |  |  |  |  |  |  |  |  |  | cytotoxicity of free peptide to HeLa CCL-2 cells [13]: nontoxic
5 | CC[C@H](C)[C@H](NC(=O)[C@H](CCCNC(=N)N)NC(=O)[C@H](CCCCN)NC(=O)[C@H](CC(C)C)NC(=O)[C@H](Cc1c[nH]c2ccccc12)NC(=O)[C@H](Cc1c[nH]c2ccccc12)NC(=O)[C@@H](N)Cc1c[nH]c2ccccc12)C(=O)N[C@@H](Cc1c[nH]c2ccccc12)C(=O)O [TetraF2W-KR] (H-WWWLKRIW-OH) | 12.5 µM (≈ 15.9 µg/mL) | 12.5 µM (≈ 15.9 µg/mL) | 3.1 µM (≈ 3.95 µg/mL) | 6.2 µM (≈ 7.9 µg/mL) | 12.5 to 25 µM | 12.5 µM (≈ 15.9 µg/mL) | 12.5 µM (≈ 15.9 µg/mL) | 3.1 µM (≈ 3.95 µg/mL) | 6.2 μM | 3.1 μM | 3.1 μM | 3.1 to 6.2 µM | LC50 Human HaCaT [14]: 60 µM; LC50 (50% hemolytic concentration) Chicken RBCs [15]: 35 µM; LC50 Human HEK293 [16]: 55 µM; LC50 (50% hemolytic concentration) Porcine RBCs [17]: 50 µM; LC50 Human HeLa [18]: 100 µM
6 | CC[C@H](C)[C@H](NC(=O)[C@H](CCCCN)NC(=O)[C@H](CCCCN)NC(=O)[C@H](CC(C)C)NC(=O)[C@H](Cc1c[nH]c2ccccc12)NC(=O)[C@H](Cc1c[nH]c2ccccc12)NC(=O)[C@@H](N)Cc1c[nH]c2ccccc12)C(=O)N[C@@H](Cc1c[nH]c2ccccc12)C(=O)O [TetraF2W-KK] (H-WWWLKKIW-OH) | >25 µM | 6.2 µM (≈ 7.72 µg/mL) | 3.1 to 6.2 µM | 6.2 µM (≈ 7.72 µg/mL) | 12.5 to 25 µM | 6.2 to 12.5 µM | 6.2 µM (≈ 7.72 µg/mL) | 3.1 to 6.2 µM | 12.5 μM | 3.1–6.2 μM | 3.1 μM | 1.6 µM (≈ 1.99 µg/mL) | LC50 Human HaCaT [14]: 50 µM; LC50 (50% hemolytic concentration) Chicken RBCs [15]: 50 µM; LC50 Human HEK293 [16]: 50 µM; LC50 (50% hemolytic concentration) Porcine RBCs [17]: 55 µM; LC50 Human HeLa [18]: 70 µM
7 | CC[C@H](C)[C@H](NC(=O)[C@H](CCCNC(=N)N)NC(=O)[C@H](CO)NC(=O)[C@H](CC(C)C)NC(=O)[C@H](Cc1c[nH]c2ccccc12)NC(=O)[C@H](Cc1c[nH]c2ccccc12)NC(=O)[C@@H](N)Cc1c[nH]c2ccccc12)C(=O)N[C@@H](Cc1c[nH]c2ccccc12)C(=O)O [TetraF2W] (H-WWWLSRIW-OH) | 6.2 µM (≈ 7.64 µg/mL) | >50 µM | 3.1 to 6.2 µM | 6.2 µM (≈ 7.64 µg/mL) | >100 µM |  |  |  |  |  |  |  | 
